Results from patent US9562085B2, “Antimicrobial peptide” (priority 2013, dated 2017).
Non-standard residues stand in square brackets, D forms with d. Residues, ends and D or L forms follow the SMILES beside them. *: point of attachment. X2 = NC(=O)OCCOCCOCCOCCOCCOCCOCCOCCOCCOCCOCCN*; Ahx = NCCCCCC(=O)O

Test system: S. aureus JAR
Format: cell-based
Conditions: for LC99.9 (μM) (50% plasma) / LC99.9 (μM) (PBS): JAR, 2 h; for antimicrobial activity, in words: statements referring to Tables 2-6
Description: S. aureus JAR is described in Campoccia et al. (Int. J. Artif. Organs, 2008 September; 31(9):841-7).
For the in vitro killing assay with P10 variants, S. aureus JAR ([…] CFU/ml) were incubated for 2 hours at 37° C. with various concentrations of the peptides in PBS or in PBS/human plasma (1/1, v/v). […] The LC99.9 is the average value of two independent experiments.

| Compound | LC99.9 (μM) (50% plasma) [µM] | LC99.9 (μM) (PBS) [µM] | antimicrobial activity, in words |
| --- | --- | --- | --- |
| CC[C@H](C)[C@H](NC(=O)[C@H](CCCCN)NC(=O)[C@@H](CCCCN)NC(=O)[C@H](Cc1ccc(O)cc1)NC(=O)[C@H](CCC(=O)O)NC(=O)[C@H](CCCNC(=N)N)NC(=O)[C@H](C)NC(=O)[C@H](CC(C)C)NC(C)=O)C(=O)N[C@H](C(=O)N[C@@H](CCC(=O)O)C(=O)N[C@@H](CCCCN)C(=O)N[C@@H](CC(C)C)C(=O)N[C@@H](CCCCN)C(=O)N[C@@H](CCCNC(=N)N)C(=O)N[C@@H](Cc1c[nH]c2ccccc12)C(=O)N[C@@H](CC(C)C)C(=O)N[C@@H](CCCNC(=N)N)C(=O)N[C@@H](CCC(N)=O)C(=O)N[C@H](C(=O)N[C@@H](CC(C)C)C(=O)N[C@@H](CCCNC(=N)N)C(=O)N[C@H](C(=O)N[C@@H](CC(C)C)C(=O)N[C@@H](CCCNC(=N)N)C(N)=O)[C@@H](C)O)C(C)C)C(C)C [Peptide 1301-6, JLAREYkKIVEKLKRWLRQVLRTLRB] (Ac-LAREY[dK]KIVEKLKRWLRQVLRTLR-NH2) | 38.4 | 0.6 |  |
| Ac-LAREYKRIVEKLKRWLRQVLRTLR-NH2 [Peptide 1302-29, JLAREYKRIVEKLKRWLRQVLRTLRB] | 102.4 | 1.6 |  |
| CC[C@H](C)[C@H](NC(=O)[C@H](CCCCN)NC(=O)[C@H](CCCCN)NC(=O)[C@H](Cc1ccc(O)cc1)NC(=O)[C@H](CCC(=O)O)NC(=O)[C@H](CCCNC(=N)N)NC(=O)[C@H](C)NC(=O)[C@H](CC(C)C)NC(C)=O)C(=O)N[C@H](C(=O)N[C@@H](CCC(=O)O)C(=O)N[C@@H](CCCCN)C(=O)N[C@@H](CC(C)C)C(=O)N[C@@H](CCCCN)C(=O)N[C@@H](CCCNC(=N)N)C(=O)N[C@@H](Cc1c[nH]c2ccccc12)C(=O)N[C@@H](CC(C)C)C(=O)N[C@@H](CCCNC(=N)N)C(=O)N[C@@H](CCC(N)=O)C(=O)N[C@H](C(=O)N[C@@H](CC(C)C)C(=O)N[C@@H](CCCNC(=N)N)C(=O)N[C@H](C(=O)N[C@@H](CC(C)C)C(=O)N[C@@H](CCCNC(=N)N)C(=O)NCCCCCC(N)=O)[C@@H](C)O)C(C)C)C(C)C [Peptide 1302-6, JLAREYKKIVEKLKRWLRQVLRTLRZB] (Ac-LAREYKKIVEKLKRWLRQVLRTLR[Ahx]-NH2) | 38.4 | 0.6 |  |
| Ac-LAREYKPIVEKLKRWPRQVLRTLR-NH2 [Peptide 1302-13, JLAREYKPIVEKLKRWPRQVLRTLRB] | >102.4 | >3.2 |  |
| CC[C@@H](C)[C@@H](NC(=O)[C@H](NC(=O)[C@@H](CCC(=O)O)NC(=O)[C@@H](CCCCN)NC(=O)[C@@H](CC(C)C)NC(=O)[C@@H](CCCCN)NC(=O)[C@@H](CCCNC(=N)N)NC(=O)[C@@H](Cc1c[nH]c2ccccc12)NC(=O)[C@@H](CC(C)C)NC(=O)[C@@H](CCCNC(=N)N)NC(=O)[C@@H](CCC(N)=O)NC(=O)[C@H](NC(=O)[C@@H](CC(C)C)NC(=O)[C@@H](CCCNC(=N)N)NC(=O)[C@H](NC(=O)[C@@H](CC(C)C)NC(=O)[C@H](N)CCCNC(=N)N)[C@H](C)O)C(C)C)C(C)C)C(=O)N[C@H](CCCCN)C(=O)N[C@H](CCCCN)C(=O)N[C@H](Cc1ccc(O)cc1)C(=O)N[C@H](CCC(=O)O)C(=O)N[C@H](CCCNC(=N)N)C(=O)N[C@H](C)C(=O)N[C@H](CC(C)C)C(N)=O [Peptide 1241-03, rltrlvqrlwrklkevikkyeralB] (H-[dR][dL][dT][dR][dL][dV][dQ][dR][dL][dW][dR][dK][dL][dK][dE][dV][dI][dK][dK][dY][dE][dR][dA][dL]-NH2) | >102.4 | 3.2 | possesses antimicrobial activity |
| CC[C@@H](C)[C@@H](NC(=O)[C@@H](CCCCN)NC(=O)[C@@H](CCCCN)NC(=O)[C@@H](Cc1ccc(O)cc1)NC(=O)[C@@H](CCC(=O)O)NC(=O)[C@@H](CCCNC(=N)N)NC(=O)[C@@H](C)NC(=O)[C@@H](CC(C)C)NC(C)=O)C(=O)N[C@@H](C(=O)N[C@H](CCC(=O)O)C(=O)N[C@H](CCCCN)C(=O)N[C@H](CC(C)C)C(=O)N[C@H](CCCCN)C(=O)N[C@H](CCCNC(=N)N)C(=O)N[C@H](Cc1c[nH]c2ccccc12)C(=O)N[C@H](CC(C)C)C(=O)N[C@H](CCCNC(=N)N)C(=O)N[C@H](CCC(N)=O)C(=O)N[C@@H](C(=O)N[C@H](CC(C)C)C(=O)N[C@H](CCCNC(=N)N)C(=O)N[C@@H](C(=O)N[C@H](CC(C)C)C(=O)N[C@H](CCCNC(=N)N)C(N)=O)[C@H](C)O)C(C)C)C(C)C [Peptide 1313-07, JlareykkiveklkrwlrqvlrtlrB] (Ac-[dL][dA][dR][dE][dY][dK][dK][dI][dV][dE][dK][dL][dK][dR][dW][dL][dR][dQ][dV][dL][dR][dT][dL][dR]-NH2) | 25.6 | 1.6 | possesses antimicrobial activity |
| Ac-LAREYKKIVEKLKRWLRQVLRALR-NH2 [Peptide 1302-54, JLAREYKKIVEKLKRWLRQVLRALRB] | 51.2 | 0.8 |  |
| Ac-LAREYKKIVEKLKRWLRQVLHTLR-NH2 [Peptide 1302-51, JLAREYKKIVEKLKRWLRQVLHTLRB] | 102.4 | 1.6 |  |
| Ac-LAREYKHIVEKLKRWLRQVLRTLR-NH2 [Peptide 1302-30, JLAREYKHIVEKLKRWLRQVLRTLRB] | 102.4 | 3.2 |  |
| Ac-LLREYKKIVEKLKRWLRQVLRTLR-NH2 [Peptide 1302-20, JLLREYKKIVEKLKRWLRQVLRTLRB] | 102.4 | 1.6 |  |
| Ac-LAREYKKIVEKLHRWLRQVLRTLR-NH2 [Peptide 1302-37, JLAREYKKIVEKLHRWLRQVLRTLRB] | 102.4 | 3.2 |  |
| CC[C@H](C)[C@H](NC(=O)[C@H](CCCCN)NC(=O)[C@H](CCCCN)NC(=O)[C@H](Cc1ccc(O)cc1)NC(=O)[C@H](CCC(=O)O)NC(=O)[C@H](CCCNC(=N)N)NC(=O)[C@H](C)NC(=O)[C@H](CC(C)C)NC(C)=O)C(=O)N[C@H](C(=O)N[C@@H](CCC(=O)O)C(=O)N[C@@H](CCCCN)C(=O)N[C@@H](CC(C)C)C(=O)N[C@@H](CCCCN)C(=O)N[C@@H](CCCNC(=N)N)C(=O)N[C@@H](Cc1c[nH]c2ccccc12)C(=O)N[C@@H](CC(C)C)C(=O)N[C@@H](CCCNC(=N)N)C(=O)N[C@@H](CCC(N)=O)C(=O)N[C@H](C(=O)N[C@H](CC(C)C)C(=O)N[C@@H](CCCNC(=N)N)C(=O)N[C@H](C(=O)N[C@@H](CC(C)C)C(=O)N[C@@H](CCCNC(=N)N)C(N)=O)[C@@H](C)O)C(C)C)C(C)C [Peptide 1301-20, JLAREYKKIVEKLKRWLRQVlRTLRB] (Ac-LAREYKKIVEKLKRWLRQV[dL]RTLR-NH2) | 38.4 | 0.6 |  |
| CC[C@H](C)[C@H](NC(=O)[C@H](CCCCN)NC(=O)[C@H](CCCCN)NC(=O)[C@H](Cc1ccc(O)cc1)NC(=O)[C@H](CCC(=O)O)NC(=O)[C@H](CCCNC(=N)N)NC(=O)[C@H](C)NC(=O)[C@H](CC(C)C)NC(C)=O)C(=O)N[C@H](C(=O)N[C@@H](CCC(=O)O)C(=O)N[C@@H](CCCCN)C(=O)N[C@@H](CC(C)C)C(=O)N[C@@H](CCCCN)C(=O)N[C@@H](CCCNC(=N)N)C(=O)N[C@@H](Cc1c[nH]c2ccccc12)C(=O)N[C@@H](CC(C)C)C(=O)N[C@@H](CCCNC(=N)N)C(=O)N[C@@H](CCC(N)=O)C(=O)N[C@H](C(=O)N[C@@H](CC(C)C)C(=O)N[C@@H](CCCNC(=N)N)C(=O)N[C@H](C(=O)N[C@@H](CC(C)C)C(=O)N[C@@H](CCCNC(=N)N)C(=O)NCCOCCOCCOCCOCCOCCOCCOCCOCCOCCOCCOC(N)=O)[C@@H](C)O)C(C)C)C(C)C [Peptide 1302-5, JLAREYKKIVEKLKRWLRQVLRTLRoB] (Ac-LAREYKKIVEKLKRWLRQVLRTLR-X2) | 102.4 | 0.8 |  |
| Ac-LARQYKKIVEKLKRWLRQVLRTLR-NH2 [Peptide 1302-25, JLARQYKKIVEKLKRWLRQVLRTLRB] | 51.2 | 1.2 |  |
| Ac-LAREYKKIVEKLKRFLRQVLRTLR-NH2 [Peptide 1302-40, JLAREYKKIVEKLKRFLRQVLRTLRB] | 76.8 | 1.6 |  |
| CC[C@H](C)[C@H](NC(=O)[C@H](CCCCN)NC(=O)[C@H](CCCCN)NC(=O)[C@H](Cc1ccc(O)cc1)NC(=O)[C@H](CCC(=O)O)NC(=O)[C@H](CCCNC(=N)N)NC(=O)[C@H](C)NC(=O)[C@H](CC(C)C)NC(C)=O)C(=O)N[C@@H](C(=O)N[C@@H](CCC(=O)O)C(=O)N[C@@H](CCCCN)C(=O)N[C@@H](CC(C)C)C(=O)N[C@@H](CCCCN)C(=O)N[C@@H](CCCNC(=N)N)C(=O)N[C@@H](Cc1c[nH]c2ccccc12)C(=O)N[C@@H](CC(C)C)C(=O)N[C@@H](CCCNC(=N)N)C(=O)N[C@@H](CCC(N)=O)C(=O)N[C@H](C(=O)N[C@@H](CC(C)C)C(=O)N[C@@H](CCCNC(=N)N)C(=O)N[C@H](C(=O)N[C@@H](CC(C)C)C(=O)N[C@@H](CCCNC(=N)N)C(N)=O)[C@@H](C)O)C(C)C)C(C)C [Peptide 1301-9, JLAREYKKIvEKLKRWLRQVLRTLRB] (Ac-LAREYKKI[dV]EKLKRWLRQVLRTLR-NH2) | 38.4 | 0.6 |  |
| Ac-AAREYKKIVEKLKRWLRQVLRTLR-NH2 [Peptide 1302-19, JAAREYKKIVEKLKRWLRQVLRTLRB] | 76.8 | 1.6 |  |
| Ac-LAREYKKIVEKVKRWLRQVLRTLR-NH2 [Peptide 1302-34, JLAREYKKIVEKVKRWLRQVLRTLRB] | 102.4 | 3.2 |  |
